Values quoted from earlier work in patent US8673971B2, “Derivatives of 4-nerolidylcatechol, pharmaceutical compositions comprising them and process for producing the same” (Instituto Nacional de Pesquisa de Amazonia INPA, priority 2007, dated 2014).

Experiments:
[1] = tests based on co-oxidation of substrate (β-carotene, linoleic acid); greater than α-tocoferol

water solubility: low water solubility
SMILES: C=CC(C)(CCC=C(C)CCC=C(C)C)c1ccc(O)c(O)c1 (centres unmarked) [4-nerolidylcatechol]
in vitro antioxidant activity relative to α-tocoferol [1]: 20 times
